According to ChEMBL document CHEMBL4118045, “Vitepyrroloids A-D, 2-Cyanopyrrole-Containing Labdane Diterpenoid Alkaloids from the Leaves of Vitex trifolia” (J Nat Prod, 2017):
pIC50: −log10 of the molar value. Activity calls are given as the source filed them. The calls are words filed in the database; no cut-off is given here.

Key:
CNE-2 = experiment: Cytotoxicity against human CNE2 cells assessed as reduction in cell viability after 3 days by MTT assay; assay type: functional, cell-based
CNE = experiment: Cytotoxicity against human CNE1 cells assessed as reduction in cell viability after 3 days by MTT assay; assay type: functional, cell-based

SMILES | pIC50 (CNE-2; CNE-2, 72 h) | pIC50 (CNE; 72 h) | Activity (CNE-2) | Activity (CNE)
C[C@@H]1CC[C@H]2C(C)(C)CCC[C@]2(C)[C@@]1(O)CCc1cc[nH]c1C#N | < 5.00 | 5.06 |  | 
CCOC(=O)CCCn1ccc(CC[C@@]2(O)[C@H](C)CC[C@H]3C(C)(C)CCC[C@@]32C)c1C#N |  |  | inactive | inactive
CC(=O)O[C@H]1CC[C@@]2(C)[C@@H](CC[C@@H](C)[C@]2(O)CCc2ccn(CCCC(=O)O)c2C#N)C1(C)C |  |  | inactive | inactive
CC(=O)O[C@@H]1C[C@@H](C)[C@](O)(CCc2ccn(CCO)c2C#N)[C@@]2(C)CCCC(C)(C)[C@H]12 |  |  | inactive | inactive
